Reference: patent US12495798B2, “Nicotinamide compound and herbicidal composition comprising compound” (KOREA RESEARCH INSTITUTE OF CHEMICAL TECHNOLOGY, priority 2019, dated 2025)

Legend:
Assay type in all cases: in vivo
[1] = system: velvetleaf; experiment: Herbicidal activity test against upland field weeds (foliar treatment test); set-up: key to Foliar treatment herbicidal activity, velvet leaf: 0 (no control); 100 (complete control); details: 50 g ai/ha
Method in brief: (§1)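 Weeds were raised from seed or rootstocks in horticultural soil in a greenhouse (30±5° C., 14/10 h light/dark), then foliage was hand-sprayed with compound at 50 or 75 g a.i./ha in 50% acetone with 0.1% Tween-20. Control was scored visually 0–100 against untreated plants after 14 days, or 21 if needed.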

[2] = system: black nightshade; experiment: Herbicidal activity test against upland field weeds (soil treatment test); set-up: key to Soil treatment herbicidal activity, black nightshade: 0 (no control); 100 (complete control); details: 50 g ai/ha, scale 0 (no control) to 100 (complete control)
Method in brief: (§2)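 Pre-emergence test: seeds or rootstocks were sown in fertilized sandy loam, and the next day the soil surface was sprayed with compound at 50 or 75 g a.i./ha in 50% acetone/0.1% Tween-20. Plants were grown in a greenhouse (30±5 °C, 14/10 h light/dark), then visually scored 0–100 against untreated at 14 d (21 d if needed).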

[3] = system: fall panicum; experiment: Herbicidal activity test against upland field weeds (foliar treatment test); set-up: key to Foliar treatment herbicidal activity, Fall panicum: 0 (no control); 100 (complete control); details: 50 g ai/ha, scale 0-100
Method in brief: as §1

[4] = system: crabgrass; experiment: Herbicidal activity test against upland field weeds (soil treatment test); set-up: key to Soil treatment herbicidal activity, Crabgrass: 0 (no control); 100 (complete control); details: 50 g ai/ha, scale 0 (no control) to 100 (complete control)
Method in brief: as §2

[5] = system: quack grass; experiment: as above; set-up: key to Soil treatment herbicidal activity, quack grass: 0 (no control); 100 (complete control); details: 50 g ai/ha, scale 0 (no control) to 100 (complete control)
Method in brief: as §2

[6] = system: sorghum; experiment: Herbicidal activity test against upland field weeds (foliar treatment test); set-up: key to Foliar treatment herbicidal activity, Sorghum: 0 (no control); 100 (complete control); details: 50 g ai/ha, scale 0-100
Method in brief: as §1

[7] = system: indian jointvetch; experiment: as above; set-up: key to Foliar treatment herbicidal activity, Indian jointvetch: 0 (no control); 100 (complete control); details: 50 g ai/ha, scale 0-100
Method in brief: as §1

[8] = system: bindweed; experiment: Herbicidal activity test against upland field weeds (soil treatment test); set-up: key to Soil treatment herbicidal activity, Bindweed: 0 (no control); 100 (complete control); details: 50 g ai/ha, scale 0 (no control) to 100 (complete control)
Method in brief: as §2

[9] = system: indian jointvetch; experiment: as above; set-up: key to Soil treatment herbicidal activity, Indian jointvetch: 0 (no control); 100 (complete control); details: 50 g ai/ha, scale 0 (no control) to 100 (complete control)
Method in brief: as §2

[10] = system: bindweed; experiment: Herbicidal activity test against upland field weeds (foliar treatment test); set-up: key to Foliar treatment herbicidal activity, Bindweed: 0 (no control); 100 (complete control); details: 50 g ai/ha, scale 0-100
Method in brief: as §1

[11] = system: barnyard grass; experiment: as above; set-up: key to Foliar treatment herbicidal activity, barnyard grass: 0 (no control); 100 (complete control); details: 50 g ai/ha, scale 0-100
Method in brief: as §1

[12] = system: fall panicum; experiment: Herbicidal activity test against upland field weeds (soil treatment test); set-up: key to Soil treatment herbicidal activity, Fall panicum: 0 (no control); 100 (complete control); details: 50 g ai/ha, scale 0 (no control) to 100 (complete control)
Method in brief: as §2

[13] = system: quack grass; experiment: Herbicidal activity test against upland field weeds (foliar treatment test); set-up: key to Foliar treatment herbicidal activity, quack grass: 0 (no control); 100 (complete control); details: 50 g ai/ha, scale 0-100
Method in brief: as §1

[14] = system: velvetleaf; experiment: Herbicidal activity test against upland field weeds (soil treatment test); set-up: key to Soil treatment herbicidal activity, velvet leaf: 0 (no control); 100 (complete control); details: 50 g ai/ha, scale 0 (no control) to 100 (complete control)
Method in brief: as §2

[15] = system: cocklebur; experiment: Herbicidal activity test against upland field weeds (foliar treatment test); set-up: key to Foliar treatment herbicidal activity, Cocklebur: 0 (no control); 100 (complete control); details: 50 g ai/ha, scale 0-100
Method in brief: as §1

[16] = system: black nightshade; experiment: as above; details: Solanum nigrum, 50 g ai/ha, scale 0-100
Method in brief: as §1

[17] = system: sorghum; experiment: Herbicidal activity test against upland field weeds (soil treatment test); set-up: key to Soil treatment herbicidal activity, Sorghum: 0 (no control); 100 (complete control); details: 50 g ai/ha, scale 0 (no control) to 100 (complete control)
Method in brief: as §2

[18] = system: crabgrass; experiment: Herbicidal activity test against upland field weeds (foliar treatment test); set-up: key to Foliar treatment herbicidal activity, Crabgrass: 0 (no control); 100 (complete control); details: 50 g ai/ha, scale 0-100
Method in brief: as §1

[19] = system: cocklebur; experiment: Herbicidal activity test against upland field weeds (soil treatment test); set-up: key to Soil treatment herbicidal activity, Cocklebur: 0 (no control); 100 (complete control); details: 50 g ai/ha, scale 0 (no control) to 100 (complete control)
Method in brief: as §2

[20] = system: barnyard grass; experiment: as above; set-up: key to Soil treatment herbicidal activity, barnyard grass: 0 (no control); 100 (complete control); details: 50 g ai/ha, scale 0 (no control) to 100 (complete control)
Method in brief: as §2

C#CCN(Cc1nnn(C)n1)c1nc(C(F)(F)F)ccc1C(=O)Nc1nnnn1C [Compound No. 2-28, N-(1-methyl-1H-tetrazol-5-yl)-2-(((2-methyl-2H-tetrazol-5-yl)methyl)(prop-2-yn-1-yl)amino)-6-(trifluoromethyl)nicotinamide]
30%: pest or weed control at 50 g/ha ([18]; Digitaria sanguinalis)
70%: pest or weed control at 50 g/ha [9] | pest or weed control at 50 g/ha ([11]; Echinochloa crus-galli) | pest or weed control at 50 g/ha ([12]; Panicum dichotomiflorum) | pest or weed control at 50 g/ha ([20]; Echinochloa crus-galli)
0: Foliar treatment herbicidal activity, Fall panicum [3] | Soil treatment herbicidal activity, quack grass [5] | Foliar treatment herbicidal activity, Sorghum [6] | Soil treatment herbicidal activity, Bindweed [8] | Foliar treatment herbicidal activity, quack grass [13] | Soil treatment herbicidal activity, Sorghum [17] | Soil treatment herbicidal activity, Cocklebur [19]
80%: pest or weed control at 50 g/ha ([15]; Xanthium strumarium)
100: Soil treatment herbicidal activity, black nightshade [2] | Soil treatment herbicidal activity, velvet leaf [14]
90%: pest or weed control at 50 g/ha ([4]; Digitaria sanguinalis) | pest or weed control at 50 g/ha [16]
40%: pest or weed control at 50 g/ha ([1]; Abutilon theophrasti, scale 0-100, read-out: Foliar treatment herbicidal activity, velvet leaf) | pest or weed control at 50 g/ha [7] | pest or weed control at 50 g/ha [10]

Cn1nnc(CN(OCc2ccccc2)c2nc(C(F)(F)F)ccc2C(=O)Nc2nnnn2C)n1 [Compound No. 2-29, 2-((benzyloxy)((2-methyl-2H-tetrazol-5-yl)methyl)amino)-N-(1-methyl-1H-tetrazol-5-yl)-6-(trifluoromethyl)nicotinamide]
0: Foliar treatment herbicidal activity, velvet leaf ([1]; scale 0-100) | Foliar treatment herbicidal activity, Fall panicum [3] | Soil treatment herbicidal activity, Crabgrass [4] | Soil treatment herbicidal activity, quack grass [5] | Foliar treatment herbicidal activity, Sorghum [6] | Foliar treatment herbicidal activity, Indian jointvetch [7] | Soil treatment herbicidal activity, Bindweed [8] | Soil treatment herbicidal activity, Indian jointvetch [9] | Foliar treatment herbicidal activity, Bindweed [10] | Foliar treatment herbicidal activity, barnyard grass [11] | Soil treatment herbicidal activity, Fall panicum [12] | Foliar treatment herbicidal activity, quack grass [13] | Soil treatment herbicidal activity, velvet leaf [14] | Foliar treatment herbicidal activity, Cocklebur [15] | Soil treatment herbicidal activity, Sorghum [17] | Foliar treatment herbicidal activity, Crabgrass [18] | Soil treatment herbicidal activity, Cocklebur [19] | Soil treatment herbicidal activity, barnyard grass [20]
20%: pest or weed control at 50 g/ha ([2]; Solanum nigrum) | pest or weed control at 50 g/ha [16]
